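Exposure lasted 48 hours, with cells grown in 96-well plates and compounds tested at five concentrations. GI50 is the concentration that inhibits growth by half. Definition used: TGI = concentration required for complete inhibition of growth.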
Tests used:
Test in all cases: growth of human tumour cells (NCI), 48 h; in the data active = GI50 below about 0.43 µM; inactive = the rest
A498 renal = tested on: A498 renal
A549 NSCLC = tested on: A549 NSCLC
M14 melanoma = tested on: M14 melanoma
OVCAR-8 ovarian = tested on: OVCAR-8 ovarian
RXF 393 renal = tested on: RXF 393 renal
SK-MEL-5 melanoma = tested on: SK-MEL-5 melanoma
U251 CNS = tested on: U251 CNS
MDA-MB-231 breast = tested on: MDA-MB-231 breast
MDA-MB-435 = tested on: MDA-MB-435
SK-OV-3 ovarian = tested on: SK-OV-3 ovarian

N#Cc1ccccc1NC(=O)C(=O)C1NC(=S)NC1=O (stereo unspecified)
> 100 µM: TGI (A498 renal) | TGI (A549 NSCLC) | TGI (M14 melanoma) | TGI (OVCAR-8 ovarian) | TGI (RXF 393 renal) | TGI (SK-MEL-5 melanoma) | TGI (U251 CNS)

CCOc1cc2c(cc1O)C(O)C[C@@H]1[C@@H]2CC[C@]2(C)[C@@H](O)CC[C@@H]12 (stereo partly specified)
> 100 µM: TGI (A549 NSCLC) | TGI (M14 melanoma) | TGI (MDA-MB-435) | TGI (SK-OV-3 ovarian)
5.25 µM: TGI (RXF 393 renal)
> 50.4 µM: TGI (OVCAR-8 ovarian)
0.497 µM: TGI (A498 renal)
> 66 µM: TGI (MDA-MB-231 breast)

NC(=S)NC/C=C/Cl
> 100 µM: TGI (A549 NSCLC) | TGI (M14 melanoma) | TGI (MDA-MB-231 breast) | TGI (MDA-MB-435) | TGI (OVCAR-8 ovarian) | TGI (RXF 393 renal) | TGI (SK-MEL-5 melanoma) | TGI (SK-OV-3 ovarian)

O=c1c2ccccc2nc2ccc3c(Cl)[nH][nH]c3c12
> 100 µM: TGI (A498 renal) | TGI (A549 NSCLC) | TGI (M14 melanoma) | TGI (OVCAR-8 ovarian) | TGI (RXF 393 renal) | TGI (SK-MEL-5 melanoma) | TGI (SK-OV-3 ovarian) | TGI (U251 CNS)

CCN(CC)C(=O)Cn1c2c(c3ccccc31)CCCC2
> 100 µM: TGI (A498 renal) | TGI (A549 NSCLC) | TGI (M14 melanoma) | TGI (MDA-MB-435) | TGI (OVCAR-8 ovarian) | TGI (SK-MEL-5 melanoma) | TGI (SK-OV-3 ovarian)

[N-]=[N+]=NCC(O)Cn1cnc2c(NC(=O)c3ccccc3)ncnc21 (stereo unspecified)
> 100 µM: TGI (A498 renal) | TGI (A549 NSCLC) | TGI (M14 melanoma) | TGI (OVCAR-8 ovarian) | TGI (RXF 393 renal) | TGI (SK-MEL-5 melanoma) | TGI (U251 CNS)

Cc1ccc(S(=O)(=O)NC(=O)C2=C3SCCN3C(=O)N(S(=O)(=O)c3ccc(C)cc3)C2c2ccccc2)cc1 (stereo unspecified)
> 100 µM: TGI (A498 renal) | TGI (A549 NSCLC) | TGI (M14 melanoma) | TGI (MDA-MB-231 breast) | TGI (OVCAR-8 ovarian) | TGI (U251 CNS)
78.7 µM: TGI (RXF 393 renal)
61 µM: TGI (MDA-MB-435)
66.8 µM: TGI (SK-OV-3 ovarian)

CC(=O)OC[C@H]1On2nnnc2[C@H](OC(C)=O)[C@@H](OC(C)=O)[C@@H]1OC(C)=O
> 100 µM: TGI (A498 renal) | TGI (A549 NSCLC) | TGI (MDA-MB-231 breast) | TGI (MDA-MB-435) | TGI (OVCAR-8 ovarian) | TGI (RXF 393 renal) | TGI (SK-MEL-5 melanoma) | TGI (SK-OV-3 ovarian) | TGI (U251 CNS)

O=C(N=Nc1ccccc1Cl)NNc1ccccc1Cl
81.7 µM: TGI (OVCAR-8 ovarian)
> 100 µM: TGI (A498 renal) | TGI (A549 NSCLC) | TGI (M14 melanoma) | TGI (MDA-MB-231 breast) | TGI (MDA-MB-435) | TGI (SK-MEL-5 melanoma) | TGI (U251 CNS)

CCCCN(C)/N=N/c1nc[nH]c1C(N)=O
> 100 µM: TGI (A498 renal) | TGI (A549 NSCLC) | TGI (OVCAR-8 ovarian) | TGI (RXF 393 renal) | TGI (SK-MEL-5 melanoma) | TGI (SK-OV-3 ovarian) | TGI (U251 CNS)

CCOC(=O)CCC(C(=O)OCC)n1nnc2cc(Nc3c(C)[n+]([O-])c4cc(F)c(OCC)cc4[n+]3[O-])ccc21 (stereo unspecified)
38.7 µM: TGI (RXF 393 renal)
> 100 µM: TGI (A498 renal) | TGI (A549 NSCLC) | TGI (M14 melanoma) | TGI (MDA-MB-435) | TGI (OVCAR-8 ovarian) | TGI (SK-MEL-5 melanoma) | TGI (SK-OV-3 ovarian) | TGI (U251 CNS)

COc1ccc(C(=O)/C=C/c2cc(-c3cc(OC)c(OC)c(OC)c3)n[nH]2)cc1
20.5 µM: TGI (SK-OV-3 ovarian)
inactive: GI50 (M14 melanoma) 2.2 µM | GI50 (MDA-MB-435) 2.2 µM | GI50 (OVCAR-8 ovarian) 2.43 µM | GI50 (RXF 393 renal) 1.27 µM | GI50 (SK-MEL-5 melanoma) 1.72 µM | GI50 (SK-OV-3 ovarian) 3.99 µM
5.7 µM: TGI (MDA-MB-435)
8.26 µM: TGI (OVCAR-8 ovarian)
2.56 µM: TGI (RXF 393 renal)
4.93 µM: TGI (M14 melanoma)
3.24 µM: TGI (SK-MEL-5 melanoma)

COc1ccc(Oc2ccccc2N)cc1
33.6 µM: TGI (SK-MEL-5 melanoma)
98.2 µM: TGI (RXF 393 renal)
> 100 µM: TGI (A498 renal) | TGI (A549 NSCLC) | TGI (M14 melanoma) | TGI (OVCAR-8 ovarian) | TGI (SK-OV-3 ovarian)
38.6 µM: TGI (U251 CNS)

Cn1c(=O)sc2cc(C(=S)N3CCCCC3)ccc21
> 100 µM: TGI (A498 renal) | TGI (M14 melanoma) | TGI (MDA-MB-231 breast) | TGI (MDA-MB-435) | TGI (OVCAR-8 ovarian) | TGI (RXF 393 renal) | TGI (SK-MEL-5 melanoma) | TGI (SK-OV-3 ovarian) | TGI (U251 CNS)

COc1ccccc1NC(=O)CC(=O)NN
> 100 µM: TGI (A498 renal) | TGI (A549 NSCLC) | TGI (MDA-MB-231 breast) | TGI (MDA-MB-435) | TGI (OVCAR-8 ovarian) | TGI (RXF 393 renal) | TGI (SK-MEL-5 melanoma) | TGI (SK-OV-3 ovarian) | TGI (U251 CNS)

COc1ccc2cc(C(C)C(=O)N3C(=O)OCC3(C)C)ccc2c1 (stereo unspecified)
> 100 µM: TGI (A498 renal) | TGI (A549 NSCLC) | TGI (M14 melanoma) | TGI (MDA-MB-231 breast) | TGI (MDA-MB-435) | TGI (OVCAR-8 ovarian) | TGI (SK-MEL-5 melanoma) | TGI (SK-OV-3 ovarian) | TGI (U251 CNS)

CCC(=O)OC1CCn2c1nc1c2C(=O)C(C)=C(NC(C)=O)C1=N (stereo unspecified)
2.89 µM: TGI (OVCAR-8 ovarian)
10.2 µM: TGI (A549 NSCLC)
4.21 µM: TGI (A498 renal)
17.2 µM: TGI (U251 CNS)
6.82 µM: TGI (SK-OV-3 ovarian)
2.55 µM: TGI (SK-MEL-5 melanoma)

Cc1nc(-c2cc3ccccc3oc2=O)cs1
72.6 µM: TGI (MDA-MB-231 breast)
> 100 µM: TGI (A549 NSCLC) | TGI (M14 melanoma) | TGI (MDA-MB-435) | TGI (OVCAR-8 ovarian) | TGI (RXF 393 renal) | TGI (SK-MEL-5 melanoma) | TGI (SK-OV-3 ovarian) | TGI (U251 CNS)

CC1(C)O[C@@H](C[C@]2(C#N)C[C@H](CCl)OC(C)(C)O2)C[C@@H](C#N)O1
> 100 µM: TGI (A498 renal) | TGI (A549 NSCLC) | TGI (M14 melanoma) | TGI (OVCAR-8 ovarian) | TGI (RXF 393 renal) | TGI (SK-MEL-5 melanoma) | TGI (SK-OV-3 ovarian) | TGI (U251 CNS)

COc1cc(N(CCC#N)CCC#N)ccc1/C=N\NC(=O)c1ccc(C)cc1
> 100 µM: TGI (A549 NSCLC) | TGI (M14 melanoma) | TGI (MDA-MB-435) | TGI (OVCAR-8 ovarian) | TGI (RXF 393 renal) | TGI (SK-MEL-5 melanoma) | TGI (SK-OV-3 ovarian)
30.8 µM: TGI (U251 CNS)
36.7 µM: TGI (MDA-MB-231 breast)

Cc1cc(-c2nc3cccc(O)c3s2)ccc1N
41.4 µM: TGI (A549 NSCLC)
41.9 µM: TGI (MDA-MB-435)
> 100 µM: TGI (MDA-MB-231 breast) | TGI (RXF 393 renal) | TGI (SK-OV-3 ovarian) | TGI (U251 CNS)
99 µM: TGI (OVCAR-8 ovarian)
48.8 µM: TGI (SK-MEL-5 melanoma)
37.7 µM: TGI (M14 melanoma)

Nc1c(S(=O)(=O)O)cc(S(=O)(=O)O)c2ccc(N=Nc3ccc(/C=C/c4ccc(N=Nc5ccc6c(S(=O)(=O)O)cc(S(=O)(=O)O)c(N)c6c5O)cc4S(=O)(=O)O)c(S(=O)(=O)O)c3)c(O)c12
> 100 µM: TGI (A498 renal) | TGI (A549 NSCLC) | TGI (OVCAR-8 ovarian) | TGI (RXF 393 renal) | TGI (SK-MEL-5 melanoma) | TGI (SK-OV-3 ovarian) | TGI (U251 CNS)

O=C(OCc1ccccc1)N1CCNCCNCCN(C(=O)OCc2ccccc2)CCNCC1
30.4 µM: TGI (M14 melanoma)
33.7 µM: TGI (U251 CNS)
70.1 µM: TGI (A498 renal)
> 100 µM: TGI (A549 NSCLC) | TGI (SK-OV-3 ovarian)
29.6 µM: TGI (MDA-MB-435)
65.1 µM: TGI (MDA-MB-231 breast)
27.1 µM: TGI (SK-MEL-5 melanoma)
32.8 µM: TGI (OVCAR-8 ovarian)

From PubChem BioAssay (NCI)
